Experimental data from US20220288151A1, “COMPOSITIONS AND METHODS FOR TREATING NEUROLOGICAL DISEASES” (CARMEL HAIFA UNIVERSITY ECONOMIC CORPORATION LTD., priority 2019, published 2022).

Columns and labels:
[1] = Body weight during TMZ/vehicle i.p. injection protocol; format: in vivo; conditions: mice given TMZ or vehicle i.p. on three consecutive days per week for four weeks
Procedure: The enriched environment (groups 2 and 3) included a running wheel, two different objects, small ball, a short plastic tube, bedding, and a nest. Control animals (groups 1 and 4) were in standard cages including bedding and nest. In both conditions, three mice were housed per cage for four weeks. The mice received a TMZ/vehicle i.p. injection three times a week. On day 29, the mice received a BrdU i.p. injection and were perfused 24 h later for IHC analysis. For neurogenesis suppression, TMZ was dissolved in DMSO at 25 mg/ml and diluted to 1.25 mg/ml in sterile saline. The mice were given i.p. injections of saline +5% DMSO (vehicle) or TMZ on three consecutive days followed by four days with no injection for four weeks. On the last week, BrdU was given i.p. in 0.9% NaCl at 200 mg/kg body weight.
Sixteen (16) eEF2K double foxed mice were injected with CaMKII-Cre and GFP viruses to the DG and 3 weeks following virus injection were injected i.p TMZ and vehicle. TMZ was dissolved in DMSO at 25 mg/ml and diluted to 1.25 mg/ml in sterile saline. The mice were given i.p. injections of saline +5% DMSO (vehicle) or TMZ on three consecutive days followed by four days with no injection for four weeks. On the last week, BrdU was given i.p. in 0.9% NaCl at 200 mg/kg body weight. […]

eEF2 (pThr56eEF2) = assay: Western blot of pThr56eEF2, eEF2 and tubulin in DG and cortex samples after ketamine i.p. injection; format: in vivo, mice; conditions: 30 min after injection; for pThr56eEF2 normalized to total eEF2 in DG lysates: dentate gyrus
Procedure: Mouse brains were quickly excised and snap frozen immediately in liquid nitrogen, and then transferred to −80° C. for later use. The brains were kept in the cryostat cabin for 15 min at −15° C. before starting tissue punching. Four 500 μm thick coronal sections were sliced slowly, and the DG and cortex tissues from both hemispheres were collected by a mouse tissue puncher. The DG and cortex tissues were transferred to a new tubes and kept immediately on dry ice and then transferred to −80° C. until further use. Brain tissues were homogenized in 100 μl of ice-cold homogenization buffer (HEPES 10 mM pH 7.4, EDTA 2 mM pH 7.4, EGTA 2 mM pH 7.4, DTT 0.5 mM (all from Sigma-Aldrich, Rehovot, Israel), 1× protease inhibitor mixture (Sigma-Aldrich Rehovot, Israel); and 1× phosphatase inhibitor mixture (Sigma-Aldrich)). Protein concentration was determined by a BCA kit (CYANAGEN, PRTD1, 0500). Protein Samples were prepared in SDS sample buffer (22.22% glycerol, 22.22% SDS (20% stock), 26.66% (0.5 M Tris PH 6.8), rest DDW) and β-Mercaptoethanol, then were boiled in 100° C. for 5 min. Each sample was divided to 3 aliquots. Each aliquot was thawed on ice and used for blotting only once or twice. The samples were subjected to 10% or 12% gel SDS-PAGE (electrophoresed on Bio-Rad PAGE apparatus) and Western blot analysis. Each sample was loaded with the same amount of total protein (8-12 μg; according to antibody linearity). After transfer to a […] pore size nitrocellulose membrane or PVDF membrane, the blots were blocked with 5% bovine serum albumin (BSA) or non-fat dry milk (blotting-grade blocker, Bio-Rad) in Tris-buffered saline plus 0.5% tween-20 (TBST) at room temperature for 1 hr. The blots were incubated overnight with the suitable primary antibodies. The blots were then subjected to three 5 min washing steps in TBST, after which they were incubated with the corresponding HRP-conjugated secondary antibodies for 1 h at room temperature followed by three 10 min washing steps with TBST. Immunodetection was performed with the enhanced-chemiluminescence EZ-ECL kit (Biological Industries, Israel). The immunoblots were quantified with a CCD camera and Quantity One software (Bio-Rad).
For all tested proteins, polyacrylamide gels were freshly prepared and used on the same day. Polyacrylamide gels (10%, Tris pH 8.8) were used to analyze the expression of eEF2, pThr56eEF2, vimentin, decorin, AMPK, pThr172AMPK, KIFSA, ERK2, pERK2, pS6K1, S6K1 and tubulin. In addition, criterion gels (BIO-RAD) were used to analyze the expression of NSF protein in the different fractions. Samples containing 10 μg protein were loaded for the detection of each protein. Samples containing 8 μg protein were loaded for ERK and pERK and […] for S6K1 and pS6K1. Each immunoblot was measured relative to the background and normalized to the endogenous control (tubulin), taken from the same gel. Mature-BDNF was analyzed using 12% (Tris pH 8.8) polyacrylamide gel and was measured relative to the background and normalized to tubulin from the same gel. Samples containing 12 μg protein were loaded for mature-BDNF. The phoshpo-protein was normalized to tubulin taken from the same gel as well.

WT mice = assay: Forced swim test; format: in vivo; conditions: WT naive mice, ketamine 5 mg/kg i.p., 30 min before test, vs saline; last 4 min scored
Procedure: WT mice were injected with ketamine 5 mg/kg or saline i.p., and 30 min later together with the CaMKII Cre/GFP-injected mice were all subjected to the forced swim test (FST). The mice were placed in a 5-liter transparent glass beaker containing 4-liter warm water at 24° C. The mice were video recorded for 6 min. The last 4 min were manually scored for immobility. Total immobility time (in seconds) is presented in the results.

[2] = ketamine 5 mg/kg i.p. vs control, cortex
[3] = ketamine 5 mg/kg i.p. vs saline

Row | Structure (SMILES) | body weight throughout the experiment [1] | eEF2 protein level normalized to tubulin in cortex tissue (eEF2 (pThr56eEF2); [2]) | pT56eEF2 normalized to eEF2 protein in cortex tissue (eEF2 (pThr56eEF2); [2]) | eEF2 protein levels normalized to tubulin (DG samples) (eEF2 (pThr56eEF2); [3]) | pThr56eEF2 normalized to total eEF2 in DG lysates (eEF2 (pThr56eEF2); [3]) | pThr56eEF2 normalized to total eEF2 in DG lysates (eEF2 (pThr56eEF2); ketamine 5 mg/kg i.p. vs saline, listed as Ketamine) | immobility time in forced swim test (WT mice)
1 | Cn1nnc2c(C(N)=O)ncn2c1=O [TMZ, Temozolomide] | maintained normal body weight |  |  |  |  |  | 
2 | CNC1(c2ccccc2Cl)CCCCC1=O (stereo not shown) [ketamine] |  | no change in eEF2 protein level | reduces pT56eEF2 levels | no change in eEF2 protein levels | peEF2 levels were reduced | induces eEF2 dephosphorylation | significantly lower immobility time
